Results from patent US11549123B2, “Plant EPSP synthases and methods of use” (PIONEER HI-BRED INTERNATIONAL, INC., priority 2015, dated 2023).
Where “and” joins values, the source holds several entries; their conditions need not be identical. Equal entries are not always repeated.

Columns and labels:
[1] = biological target: T1, Zea mays (maize) EPSPS, native, SEQ ID NO:1 (Table 10: SEQ ID NO:2) (Zea mays, UniProt O24566); experiment: EPSPS substrate saturation kinetics (PEP varied, glyphosate inhibition), native maize; assay type: biochemical
T1 sequence (O24566 with tags, fused parts or gaps): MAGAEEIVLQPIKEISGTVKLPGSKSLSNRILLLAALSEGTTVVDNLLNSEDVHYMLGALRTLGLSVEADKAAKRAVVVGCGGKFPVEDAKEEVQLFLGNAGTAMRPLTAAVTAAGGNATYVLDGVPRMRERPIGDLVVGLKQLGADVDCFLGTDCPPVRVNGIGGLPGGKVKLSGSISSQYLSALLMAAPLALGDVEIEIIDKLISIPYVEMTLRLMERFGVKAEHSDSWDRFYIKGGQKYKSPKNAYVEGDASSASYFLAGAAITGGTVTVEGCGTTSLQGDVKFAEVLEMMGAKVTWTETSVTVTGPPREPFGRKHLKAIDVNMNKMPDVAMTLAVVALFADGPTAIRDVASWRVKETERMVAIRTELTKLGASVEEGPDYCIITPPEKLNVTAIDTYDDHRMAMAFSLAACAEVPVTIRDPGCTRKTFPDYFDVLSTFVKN
Text: The amino acid sequence of mature Zea mays EPSP synthase (EPSPS) was obtained from GenBank entry CAA44974.1 (NCBI GI No. 1524383; presented herein as SEQ ID NO:2). A nucleotide sequence was created to add an N-terminal methionine and to optimize codon usage for expression in E. coli. The synthetic gene was supplied by a commercial vendor. The gene was cloned into an expression vector that provides a T7 promoter driving expression of the protein. The vector was modified to change a 6×N-terminal histidine tag to a 10×tag. The resulting coding region of the vector yields an expressed protein with the amino acid sequence shown in Table 1 (represented by SEQ ID NO:1). The coding region is preceded by an N-terminal extension represented by SEQ ID NO:3.
Whether protein production was done in BL21(DE3) or with the Tuner AroA knockout, the vector was electroporated into cells and transformants were selected for growth on LB agar containing 100 ug carbennicillin/ml. Cells were grown in Magic Medium, in which induction occurs when the medium becomes depleted of glucose. After 4 hours of growth at 37° C., cells were transferred to 30° C. and grown another 16 hrs. Pelleted cells were lysed with BPER (Pierce) protein extraction reagent containing 0.2 mg/ml lysozyme, 1 mM dithiothreitol, protease inhibitor cocktail (Sigma, bacterial cocktail) and endonuclease. Insoluble cellular debris was removed by centrifugation. EPSPS protein was purified from the soluble protein solution by affinity chromatography on the nickel form of nitrilotriacetic acid (Ni-NTA) resin (Qiagen). Protein concentration was measured by absorbance at 280 nm using an extinction coefficient of 0.676 OD/mg/ml, provided by Vector NTI.
Shikimate-3-phosphate (S3P) was prepared from cultures of Klebsiella pneumonia aroA-(ATCC 25597). Cells from a 500 ml culture grown in 2×YT were used to inoculate 6 L of minimal medium augmented with 55 uM tyrosine, 60 uM phenylalanine, 25 uM tryptophan, 0.1 uM 4-aminobenzoate and 0.1 uM 4-hydroxybenzoate (Weiss et al., 1953. J Amer Chem Soc 75:5572-5576). Accumulation of S3P was monitored by anion exchange HPLC. After about 4 days shaking at 37 C, the concentration reached ˜1 mM. S3P was purified from the culture supernatant by anion exchange chromatography in ammonium bicarbonate at pH 7.3, with gradient elution up to 0.7 M. S3P was cleanly separated from phosphate, which eluted earlier.
EPSPS activity was determined by quantifying the phosphate generated from the EPSPS reaction. Release of inorganic phosphate was coupled to reaction with 2-amino-6-mercapto-7-methylpurine ribonucleoside, catalyzed by purine-nucleoside phosphorylase (M R Webb, Proc. Natl. Acad. Sci. 89:4884-4887, 1992). The absorbance change that occurs was monitored at 360 nm, where the extinction is 11,200 M^−1 cm^−1, with a Spectramax plate reader (Molecular Devices). To determine kinetic parameters, the varied substrate was present at seven concentrations (the eighth being the blank, containing no substrate) ranging from 4 to 400 uM and the unvaried substrate present at saturation. […] Reactions were monitored with a Spectramax plate reader. […]

[2] = biological target: T2, Zea mays EPSPS, native, SEQ ID NO:2 (Zea mays, UniProt O24566); experiment: Substrate saturation analysis with glyphosate (Example 8, global fit to competitive inhibition), native maize; assay type: biochemical
T2 construct: E. coli BL21(DE3), Ni-NTA purified
T2 sequence (O24566 with tags, fused parts or gaps): T1 sequence (O24566 with tags, fused parts or gaps)
Text: Generally, (kcat/KM)*KI is obtained by performing substrate saturation analysis in the absence and presence of inhibitor. However, that analysis takes longer. […] To validate the method, (kcat/KM)*KI was quantified using both methods—traditional (saturation) and the instant method (rapid), for variants of maize 5-enolpyruvylshikimate-3-phosphate synthase (EPSPS) and its competitive inhibitor, glyphosate.
The amino acid sequence of mature Zea mays EPSPS was obtained from GenBank entry CAA44974.1 (SEQ ID NO:2). A nucleotide sequence was created to add an N-terminal methionine and to optimize codon usage for expression in E. coli. The synthesized gene was cloned into an expression vector that provides a T7 promoter driving expression of the protein and a 10× N-terminal histidine tag. Variants selected for this study include native maize EPSPS and variants generated by a gene shuffling cascade described herein. The proteins were expressed in E. coli BL21(DE3) and purified by Ni-NTA resin (Qiagen). Protein concentration was determined by absorbance at 280 nm using an extinction coefficient of 0.676 OD/mg/m L. The proteins were normalized to 0.5 mg/mL for assay.
EPSPS activity was determined by quantifying the phosphate generated by the reaction. Release of phosphate was coupled to reaction with MESG, catalyzed by purine-nucleoside phosphorylase, using standard methods. The absorbance change that occurs was monitored continuously at 360 nm, where the extinction is 11,200 M-1 cm-1, with a Spectramax plate reader (Molecular Devices). […] The enzyme concentration was adjusted so as to generate sufficient signal without exceeding the limit for linear initial reaction rates. The same procedure was repeated with two or three concentrations of glyphosate and the data were processed by non-linear regression analysis with GraphPad Prism (graphpad.com) and globally fitted to the Michaelis-Menten equation for competitive inhibition.
To validate that the rapid method yields an accurate estimation of (kcat/KM)*KI, the results were compared with those obtained by full substrate saturation analysis. […]

[3] = substrate saturation, Zm native

Compound `C=C(OP(=O)(O)O)C(=O)O` [PEP, phosphoenolpyruvate] has a kcat ([1]; PEP varied, S3P saturating, pH 7) of 1464 min⁻¹, a kcat ([1]; Table 3, unit not given) of 1464 and a Km ([1]; read-out: KM (PEP), Table 3, unit inferred) of 15.7 µM. The kcat [2, 3] was 17.27 s⁻¹.
For `O=C(O)CNCP(=O)(O)O` [glyphosate, N-phosphonomethylglycine], the Ki [1] was 0.13 µM, the “(kcat/KM)*KI” value ([1]; PEP as substrate, glyphosate as inhibitor) was 11.8 and 12 and the Ki [2] was 0.13 µM. For the same compound, the “(kcat/KM)*KI” value [2, 3] was 12.
